{"source": "patent US9689040B2", "about": "“Selective inhibitors of tumor-initiating cells” (Children's Medical Center Corporation, priority 2011, dated 2017)", "format_in_all_cases": "cell-based, human", "key": {"BPE cells": {"test_system": "BPE cells", "assay": "Apoptosis (Annexin V/PI flow cytometry, caspase 3 and PARP cleavage immunoblot)", "details": "clinically relevant / low dose, 24 hours", "experimental": "(§1) BPLER were used as control. […] The percentage of double-positive cells is indicated.\n(§2) To further define factors underlying such properties of BPLER cells, we first determined the molecular mechanism by which proteasome inhibition affects the growth of these cells.\n(§3) Immunoblot was performed as described^41. Primary antibodies were as follows: cleaved Caspase 3 (Cell Signaling, rabbit polyclonal, 1:1000), PARP1 (Santa Cruz, rabbit polyclonal, 1:500), MCL1 (Cell Signaling, Rabbit polyclonal, 1:1000), Bim (Santa Cruz, rabbit polyclonal, 1:500), Bik (Cell Signaling, rabbit polyclonal, 1:1000), Puma (Cell Signaling, rabbit polyclonal, 1:1000), Noxa (Calbiochem, mouse monoclonal, 1:500), Bid (Santa Cruz, rabbit polyclonal, 1:500), Bad (Santa Cruz, rabbit polyclonal, 1:500). Antibodies were diluted in 5% milk in TBS-T and incubated O.N. at 4° C. Secondary mouse and rabbit HRP-conjugated antibodies were from Amersham. Protein signal was detected using the ECL Plus kit (Amersham). For flow cytometry, cells were stained as previously described^33, using the following fluorescent-conjugated antibodies: CD44 (BD Biosciences), CD24 (BD Biosciences), CD326 (ESA, Biolegend), Annexin V (Invitrogen). For immunofluorescence microscopy, cells were fixed in 2% PFA for 10 min, permeabilized with 1% Triton X in PBS for 5 min, and incubated with primary antibodies in 0.5% Triton X, 1% FBS in PBS for 30 min at RT. Antibodies were: CK18 (Santa Cruz, mouse monoclonal, 1:100) and CK14 (Millipore, mouse monoclonal, 1:100). After washing the cells were stained sequentially with AlexaFluor647-conjugated secondary antibody (Invitrogen, 1:200) and DAPI (Sigma, 1:5000). For immunohistochemistry, BPLER tumor sections were prepared from paraffin-embedded tissues, deparaffinized and treated with 10% citrate buffer for 15 min. Staining was performed using a BIOGENEX IHC DAB kit (Biogenex) following the manufacturer's protocol. Primary antibodies were: CK14 (Millipore, mouse monoclonal, 1:100), CK5 (Millipore, mouse monoclonal, 1:100), HH3 (Cell Signaling, rabbit polyclonal, 1:100), ER (Abcam, mouse monoclonal, 1:100), Vimentin (Invitrogen, mouse monoclonal 1:100), Ki67 (Millipore, mouse monoclonal, 1:100)."}, "HMLER cells": {"test_system": "HMLER cells", "assay": "Apoptosis (Annexin V/PI flow cytometry, caspase 3 and PARP cleavage immunoblot)", "details": "clinically relevant / low dose, 24 hours", "experimental": "as §1, §2, §3"}, "[1]": {"test_system": "luminal MCF7 and BT-474 cells", "assay": "Viability of breast cancer cell lines treated with bortezomib (CellTiterGlo)"}}, "note": "“Also recorded” adds a separate entry of the source.", "data": [{"molecule": "CC(C)C[C@H](NC(=O)[C@H](Cc1ccccc1)NC(=O)c1cnccn1)B(O)O", "note": "[bortezomib]", "values": [{"measurement": "apoptosis (cleavage of caspase 3 and PARP)", "setting": "BPE cells", "value": "resistant to bortezomib-induced apoptosis"}, {"measurement": "apoptosis (cleavage of caspase 3 and PARP)", "setting": "HMLER cells", "value": "only partially; also recorded: minimal signs of apoptosis"}, {"measurement": "cytotoxicity at 0.0125 µM", "setting": "[1]; Homo sapiens, luminal cells, 12.5 nM, 24 hr, read-out: decrease of cell viability", "value": 5, "unit": "%"}, {"measurement": "sensitivity of ER+ and HER2+ breast cancer cell lines", "setting": "[1]; MCF7, BT-474", "value": "resistant"}]}]}
